Measurements published in patent US8053585B2, “Protecting group for carboxylic acids that can be photolyzed by visible light” (Cornell Research Foundation, Inc., priority 2006, dated 2011).
Entries after “also recorded” stand apart in the source; their conditions may differ.

Tests used:
GluR6 glutamate receptor = assay: Whole-cell current recording with cell-flow method, HEK 293 cells expressing GluR6; type: cell-based
From the text: (§1) In whole-cell current recording experiments with DECM-caged glutamate, HEK 293 cells stably transfected with cDNA encoding the GluR6 were used. In whole-cell current recording experiments with DECM-caged glycine, HEK 293 cells were transiently transfected with the cDNA of the α1-subunit of the human glycine receptor by using the Polyfect™ transfection reagent (Qiagen GmbH, D-40724, Hilden, Germany). The cDNA of the α1-subunit was kindly provided by Professor H. Betz (Max-Plank-Institute for brain Research, Frankfurt, Germany). The cells were co-transfected with cDNA encoding the green fluorescent protein (pGreen Lantern plasmid, Life Technologies, Gaitherberg, Md.) to detect transfected cells (Chalfie et al., “Green Fluorescent Protein as a Marker for Gene Expression,” Science 263:802-805 (1994), which is hereby incorporated by reference in its entirety).
The cells were used for electrophysiological experiments between 24 and 72 h after each passage. Whole-cell currents evoked by glutamate or glycine (100 μM) were recorded using the whole-cell configuration (Hamill et al., “Improved Patch-Clamp Techniques for High-Resolution Current Recording From Cells and Cell-Free Membrane Patches,” Pfluegers Arch 391:85-100 (1981), which is hereby incorporated by reference in its entirety) at room temperature, −60 mV, and pH 7.4. The experiments using DECM-caged glutamate were carried out in the absence or presence of 2 mM DECM-caged glutamate (FIG. 5A) or 1 mM 7-N,N-diethylamino-4-hydroxymethylcoumarin (2) (FIG. 5B). Alternatively, the experiments using DECM-caged glycine were carried out in the absence or presence of 1 mM DECM-caged-glycine (FIG. 10). The solution in the recording pipet contained 120 mM CsCl, 10 mM EGTA, and 10 mM HEPES, adjusted to pH 7.4. The HEK cell bath solution contained 150 mM NaCl, 1 mM CaCl2, 10 mM HEPES, pH 7.4. The resistance of the recording electrode filled with buffer solution was typically 3-5 MΩ and the series resistance was 5-6 MΩ. The cells were held at a constant transmembrane voltage of −60 mV and room temperature (22° C.). […]

[1] = biological target: T1, α1-subunit of the human glycine receptor (Homo sapiens, UniProt P23415); assay: Whole-cell current recording with cell-flow method, HEK 293 cells expressing glycine receptor; type: cell-based
T1 construct: expressed in transfected cells; host or cells: HEK 293 cells, transiently transfected (Polyfect), co-transfected with GFP plasmid as marker; cDNA from Prof; H. Betz
T1 sequence (P23415 29-457): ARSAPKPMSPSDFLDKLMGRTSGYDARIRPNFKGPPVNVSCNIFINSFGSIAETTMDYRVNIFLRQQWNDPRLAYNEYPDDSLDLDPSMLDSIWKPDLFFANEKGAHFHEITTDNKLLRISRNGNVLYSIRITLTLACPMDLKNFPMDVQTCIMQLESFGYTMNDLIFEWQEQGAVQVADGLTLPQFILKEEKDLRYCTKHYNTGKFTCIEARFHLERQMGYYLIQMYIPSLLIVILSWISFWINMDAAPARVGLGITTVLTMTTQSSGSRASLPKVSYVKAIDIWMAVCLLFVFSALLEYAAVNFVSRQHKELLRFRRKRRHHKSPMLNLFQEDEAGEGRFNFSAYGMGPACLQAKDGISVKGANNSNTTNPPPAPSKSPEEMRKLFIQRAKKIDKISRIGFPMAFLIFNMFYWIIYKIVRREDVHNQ
From the text: as §1
The cells were used for electrophysiological experiments between 24 and 72 h after each passage. Whole-cell currents evoked by glutamate or glycine (100 μM) were recorded using the whole-cell configuration (Hamill et al., “Improved Patch-Clamp Techniques for High-Resolution Current Recording From Cells and Cell-Free Membrane Patches,” Pfluegers Arch 391:85-100 (1981), which is hereby incorporated by reference in its entirety) at room temperature, −60 mV, and pH 7.4. […]

Structure (SMILES)	whole-cell current evoked by 100 μM glutamate, presence vs absence of compound (GluR6 glutamate receptor; 2 mM DECM-caged glutamate, −60 mV, pH 7.4, 22° C.)	biological activity at glutamate receptors (inhibition or activation) (GluR6 glutamate receptor; HEK-293 cells expressing glutamate receptors)	whole-cell current evoked by 100 μM glycine, presence vs absence of compound ([1]; 2 mM DECM-caged glycine (FIG. 10 legend), −60 mV, pH 7.4, 22° C.)	biological activity at glycine receptors (inhibition or activation) ([1]; HEK293 cells expressing glycine receptors)
CCN(CC)c1ccc2c(COC(=O)CCC(N)C(=O)O)cc(=O)oc2c1 (stereo not shown) [DECM-caged glutamate, (7-N,N-Diethylaminocoumarin-4-yl)-methyl-glutamate-trifluoroacetate]	do not inhibit	biologically inert	–	–
CCN(CC)c1ccc2c(COC(=O)CN)cc(=O)oc2c1 [DECM-caged glycine, (7-N,N-Diethylaminocoumarin-4-yl)-methyl-glycine-trifluoroacetate]	–	–	does not inhibit	biologically inert; also recorded: neither DECM-caged glycine nor its byproducts inhibited or activated the glycine receptors
